In patent US10035800B2 (AbbVie Inc., priority 2013, dated 2018):

Tests used:
BRD4 (BDII_E352-M457) = target: T1, BRD4 (BDII_E352-M457) (Homo sapiens, UniProt O60885); assay: TR-FRET bromodomain binding assay, second bromodomain of BRD4; details: TR-FRET assay protocol G (compound 0.92 μM-15 pM); 30 nM probe
T1 construct: protocol; made in house
Experimental: (§1) Bromodomain Domain Binding Assay
(§2) A time-resolved fluorescence resonance energy transfer (TR-FRET) assay was used to determine the affinities of compounds of the Examples listed in Table 1 for each bromodomain of BRD4. His-tagged first (BD1: amino acids K57-E168) and second (BD2: amino acids […]) bromodomains of BRD4 were expressed and purified. An Alexa647-labeled BET-inhibitor was used as the fluorescent probe in the assay.
(§3) Compound dilution series were prepared in DMSO via an approximately 3-fold serial dilution from one of the following: […]
(§4) Assay method E: 0.47 mM to 7.8 nM […]
(§5) Assay method G: 0.047 mM to 0.78 nM
(§6) or 5-fold serial dilution from one of the following: […]
(§7) Assay method B: 2.5 mM-797 nM […]
(§8) For Assay methods B, E, and G: Compound dilutions were added directly into white, low-volume assay plates (Perkin Elmer Proxiplate 384 Plus#6008280) using a Labcyte Echo in conjunction with Labcyte Access and Thermo Multidrop CombinL robotics. Compounds were then suspended in eight microliters (μL) of assay buffer (20 mM Sodium Phosphate, pH 6.0, 50 mM NaCl, 1 mM Ethylenediaminetetraacetic acid disodium salt dihydrate, 0.01% Triton X-100, 1 mM DL-Dithiothreitol) containing His-tagged bromodomain, Europium-conjugated anti-His antibody (Invitrogen PV5596) and Alexa-647-conjugated probe.
(§9) The final concentration of 1× assay mixture for assay methods A, B, C, D, E, F, and G contains 2% DMSO, 8 nM His-tagged bromodomain, 1 nM Europium-conjugated anti-His-tag antibody and 100 nM or 30 nM probe (for BDI or BDII, respectively) and compound concentration in the range of: 50 μM-16 nM for method A, 49.02 μM-15.63 nM for method B, 25 μM-423 pM for method C, 10 μM-169 pM for method D, 9.19 μM-150 pM for method E, 5 μM-85 pM for method F, and 0.92 μM-15 pM for method G.
(§10) After a one-hour equilibration at room temperature, TR-FRET ratios were determined using an Envision multilabel plate reader (Ex 340, Em 495/520).
(§11) TR-FRET data were normalized to the means of 24 no-compound controls (“high”) and 8 controls containing 1 μM un-labeled probe (“low”). Percent inhibition was plotted as a function of compound concentration and the data were fit with the 4 parameter logistic equation to obtain IC50s. Inhibition constants (Ki) were calculated from the IC50s, probe Kd and probe concentration. Typical Z′ values were between 0.65 and 0.75. The minimum significant ratio was determined to evaluate assay reproducibility (Eastwood et al., (2006) J Biomol Screen, 11: 253-261). The MSR was determined to be 2.03 for BDI and 1.93 for BDII, and a moving MSR (last six run MSR overtime) for both BDI and BDII was typically <3.

BRD4 (BDI_K57-E168) = target: T2, BRD4 (BDI_K57-E168) (Homo sapiens, UniProt O60885); assay: TR-FRET bromodomain binding assay, first bromodomain of BRD4; details: TR-FRET assay protocol G (compound 0.92 μM-15 pM); 100 nM probe
T2 construct: BD1: amino acids K57-E168; made in house
Experimental: as §1, §2, §3, §4, §5, §6, §7, §8, §9, §10, §11

Ki (BRD4 (BDII_E352-M457)) [µM]	Ki (BRD4 (BDI_K57-E168)) [µM]	Compound
0.00682	0.00434	CC(C1CCOC1=O)N1Cc2c[nH]c3c(=O)n(C)cc(c23)-c2cc(CS(C)(=O)=O)ccc21 (stereo not shown) [Example 184, 10-methyl-7-((methylsulfonyl)methyl)-4-(1-(2-oxotetrahydrofuran-3-yl)ethyl)-3,4-dihydro-1H-1,4,10-triazadibenzo[cd,f]azulen-11(10H)-one]
> 0.408	> 0.238	COc1ccc(S(=O)(=O)N2Cc3c[nH]c4c(=O)n(C)cc(c34)-c3cc(CS(C)(=O)=O)ccc32)cc1 [Example 76, 4-((4-methoxyphenyl)sulfonyl)-10-methyl-7-((methylsulfonyl)methyl)-3,4-dihydro-1H-1,4,10-triazadibenzo[cd,f]azulen-11(10H)-one]
0.0108	0.00405	CCN1CCCC(CN2Cc3c[nH]c4c(=O)n(C)cc(c34)-c3cc(CS(C)(=O)=O)ccc32)C1 (stereo not shown) [Example 150, 4-((1-ethylpiperidin-3-yl)methyl)-10-methyl-7-((methylsulfonyl)methyl)-3,4-dihydro-1H-1,4,10-triazadibenzo[cd,f]azulen-11(10H)-one]
> 0.408	> 0.238	Cn1cc2c3c(c[nH]c3c1=O)CN(S(=O)(=O)c1ccc(F)cc1)c1ccc(CS(C)(=O)=O)cc1-2 [Example 80, 4-((4-fluorophenyl)sulfonyl)-10-methyl-7-((methylsulfonyl)methyl)-3,4-dihydro-1H-1,4,10-triazadibenzo[cd,f]azulen-11(10H)-one]
0.0109	0.0856	Cn1cc2c3c(c[nH]c3c1=O)CN(C(=O)c1ccccc1F)c1ccc(CS(C)(=O)=O)cc1-2 [Example 113, 4-(2-fluorobenzoyl)-10-methyl-7-((methylsulfonyl)methyl)-3,4-dihydro-1H-1,4,10-triazadibenzo[cd,f]azulen-11(10H)-one]
> 0.408	> 0.238	CCOC(=O)C1Nc2ncc(F)cc2-c2cn(C)c(=O)c3[nH]cc1c23 (stereo not shown) [Example 39, ethyl 7-fluoro-10-methyl-11-oxo-3,4,10,11-tetrahydro-1H-1,4,5,10-tetraazadibenzo[cd,f]azulene-3-carboxylate]
0.0323	0.0517	Cn1cc2c3c(c[nH]c3c1=O)CN(C(=O)c1ccc3ccccc3c1)c1ccc(CS(C)(=O)=O)cc1-2 [Example 81, 4-(2-naphthoyl)-10-methyl-7-((methylsulfonyl)methyl)-3,4-dihydro-1H-1,4,10-triazadibenzo[cd,f]azulen-11(10H)-one]
0.00918	0.00372	CCOCCC(C)N1Cc2c[nH]c3c(=O)n(C)cc(c23)-c2cc(CS(C)(=O)=O)ccc21 (racemic) [Example 153, 4-(4-ethoxybutan-2-yl)-10-methyl-7-((methylsulfonyl)methyl)-3,4-dihydro-1H-1,4,10-triazadibenzo[cd,f]azulen-11(10H)-one]
0.00471	0.00812	Cn1cc2c3c(c[nH]c3c1=O)CN(C(=O)CCC1CCCC1)c1ccc(CS(C)(=O)=O)cc1-2 [Example 103, 4-(3-cyclopentylpropanoyl)-10-methyl-7-((methylsulfonyl)methyl)-3,4-dihydro-1H-1,4,10-triazadibenzo[cd,f]azulen-11(10H)-one]
0.0773	0.0603	Cn1cc2c3c(c[nH]c3c1=O)C(C(=O)NC1CCCCC1)N(c1ccc(F)cc1F)c1ccc(CS(C)(=O)=O)cc1-2 (stereo not shown) [Example 158, N-cyclohexyl-4-(2,4-difluorophenyl)-10-methyl-7-((methylsulfonyl)methyl)-11-oxo-3,4,10,11-tetrahydro-1H-1,4,10-triazadibenzo[cd,f]azulene-3-carboxamide]
0.00145	0.00585	CC(C)C(=O)N1Cc2c[nH]c3c(=O)n(C)cc(c23)-c2cc(CS(C)(=O)=O)ccc21 [Example 54, 4-isobutyryl-10-methyl-7-((methylsulfonyl)methyl)-3,4-dihydro-1H-1,4,10-triazadibenzo[cd,f]azulen-11(10H)-one]
0.118	0.125	Cn1cc2c3c(c[nH]c3c1=O)C(C(=O)NCCCc1ccccc1)N(c1ccc(F)cc1F)c1ccc(CS(C)(=O)=O)cc1-2 (racemic) [Example 160, 4-(2,4-difluorophenyl)-10-methyl-7-((methylsulfonyl)methyl)-11-oxo-N-(3-phenylpropyl)-3,4,10,11-tetrahydro-1H-1,4,10-triazadibenzo[cd,f]azulene-3-carboxamide]
0.0292	0.0164	Cn1cc2c3c(c[nH]c3c1=O)CN(C1CCC(N)CC1)c1ccc(S(C)(=O)=O)cc1-2 (stereo not drawn) [Example 171, 4-((trans)-4-aminocyclohexyl)-10-methyl-7-(methylsulfonyl)-3,4-dihydro-1H-1,4,10-triazadibenzo[cd,f]azulen-11(10H)-one]
0.0267	0.0304	Cn1cc2c3c(c[nH]c3c1=O)CN(C(=O)Nc1ccc(F)c(C(F)(F)F)c1)c1ccc(CS(C)(=O)=O)cc1-2 [Example 71, N-(4-fluoro-3-(trifluoromethyl)phenyl)-10-methyl-7-((methylsulfonyl)methyl)-11-oxo-10,11-dihydro-1H-1,4,10-triazadibenzo[cd,f]azulene-4(3H)-carboxamide]
0.00277	0.00483	COCCC(=O)N1Cc2c[nH]c3c(=O)n(C)cc(c23)-c2cc(CS(C)(=O)=O)ccc21 [Example 101, 4-(3-methoxypropanoyl)-10-methyl-7-((methylsulfonyl)methyl)-3,4-dihydro-1H-1,4,10-triazadibenzo[cd,f]azulen-11(10H)-one]
0.00135	0.00321	COc1ccc(OC(=O)N2Cc3c[nH]c4c(=O)n(C)cc(c34)-c3cc(CS(C)(=O)=O)ccc32)cc1 [Example 97, 4-methoxyphenyl 10-methyl-7-((methylsulfonyl)methyl)-11-oxo-10,11-dihydro-1H-1,4,10-triazadibenzo[cd,f]azulene-4(3H)-carboxylate]
0.0531	0.0507	Cn1cc2c3c(c[nH]c3c1=O)C(C(=O)NCCC#N)N(c1ccc(F)cc1F)c1ccc(CS(C)(=O)=O)cc1-2 (racemic) [Example 154, N-(2-cyanoethyl)-4-(2,4-difluorophenyl)-10-methyl-7-((methylsulfonyl)methyl)-11-oxo-3,4,10,11-tetrahydro-1H-1,4,10-triazadibenzo[cd,f]azulene-3-carboxamide]
0.0262	0.0347	COc1cccc(CC(=O)N2Cc3c[nH]c4c(=O)n(C)cc(c34)-c3cc(CS(C)(=O)=O)ccc32)c1 [Example 104, 4-(2-(3-methoxyphenyl)acetyl)-10-methyl-7-((methylsulfonyl)methyl)-3,4-dihydro-1H-1,4,10-triazadibenzo[cd,f]azulen-11(10H)-one]
> 0.408	> 0.238	Cn1cc2c3c(c[nH]c3c1=O)C(c1cc(C(C)(C)C)cc(C(C)(C)C)c1)N(c1ccc(F)cc1F)c1ccc(CS(C)(=O)=O)cc1-2 (stereo not shown) [Example 223, 3-(3,5-di-tert-butylphenyl)-4-(2,4-difluorophenyl)-10-methyl-7-((methylsulfonyl)methyl)-3,4-dihydro-1H-1,4,10-triazadibenzo[cd,f]azulen-11(10H)-one]

Compound	Ki (BRD4 (BDII_E352-M457)) [µM]	Ki (BRD4 (BDI_K57-E168)) [µM]
N-(2-chloroethyl)-10-methyl-7-((methylsulfonyl)methyl)-11-oxo-10,11-dihydro-1H-1,4,10-triazadibenzo[cd,f]azulene-4(3H)-carboxamide [Example 66]	> 0.408	> 0.238
10-methyl-7-((methylsulfonyl)methyl)-4-(1-((2-(trimethylsilyl)ethoxy)methyl)-1H-indazol-5-yl)-3,4-dihydro-1H-1,4,10-triazadibenzo[cd,f]azulen-11(10H)-one [Example 233]	0.00377	0.00615
4-((1-isopropylpiperidin-4-yl)methyl)-10-methyl-7-((methylsulfonyl)methyl)-3,4-dihydro-1H-1,4,10-triazadibenzo[cd,f]azulen-11(10H)-one [Example 183]	0.0155	0.00384
CN1CCCC(N2Cc3c[nH]c4c(=O)n(C)cc(c34)-c3cc(CS(C)(=O)=O)ccc32)CC1 (stereo not shown) [Example 189]	0.0223	0.00582
